Consider five molecules from patent US10233157B2, “SIK inhibitor for use in a method of treating an inflammatory and/or immune disorder” (Dana-Farber Cancer Institute, Inc., priority 2012, dated 2019).

In one data set the test system is NUAK isoforms. Particulars: previously reported; cited from earlier work.
The next data set deals with IKK-related kinases. The note with it: previously reported; cited from earlier work.
A further data set concerns MARK isoforms. Particulars: previously reported; cited from earlier work.
The subject of data set [1] is protein kinases that possess a threonine residue at the gatekeeper site (Src, Lck, Yes, BTK, FGF and Ephrin receptors). The data set can be described thus: Kinase profiling, kinases with threonine at the gatekeeper site. The note with it: kinase panel; 1 μM KIN112, 0.1 μM HG-9-91-01. It counts as biochemical. How it is done: (§1) Recombinant SIK1, SIK2, SIK3 were expressed as GST-fusion proteins in HEK293 cells and purified on a glutathione-Sepharose column. […] FLAG-CRTC3 was immunoprecipitated using anti-FLAG M2 agarose, washed in kinase buffer (50 mM Tris/HCl pH 7.4, 10 mM Mg acetate, 0.1 mM EGTA, 2 mM DTT) and reactions initiated by adding 4 U/ml recombinant kinase with 0.1 mM ATP (specific activity 3000 cpm/pmol). Phosphorylation of CRTC3 was monitored by autoradiography as well as immunoblotting using phosphospecific antibodies raised against Ser162, Ser329 and Ser370. […] Kinase profiling was performed as previously described (7) and performed by the International Centre for Kinase Profiling (www.kinase-screen.mrc.ac.uk).

Another data set concerns SIK isoforms. The data set can be described thus: Kinase assays, SIK isoforms. It counts as biochemical. Particulars: in vitro.
A further data set relates to LPS-stimulated BMDMs. The data set can be described thus: Expression of macrophage markers in LPS-stimulated BMDMs (qPCR). In kind it is cell-based, mouse. How it is done: FIGS. 10A to 10E. Inhibition of the LKB1-SIK-CRTC3-IL10 signaling axis drives the expression of markers of regulatory macrophages. (FIG. 10A) Effect of SIK inhibitors on the LPS-stimulated expression of LIGHT, SPHK1, Arg1 and IL-1ra (n=4, mean±SD). […] (FIG. 10C) Elevated expression of markers of regulatory macrophage in LKB1−/− macrophages. BMDMs were generated from LysM-Cre/LKB1+/+ and LysM-Cre/LKB1flox/flox mice and stimulated with 100 ng/ml LPS (mean±SD, n=3). (FIG. 10D) CRTC3 is required for the induction of markers of regulatory macrophages. […] LIGHT and SPHK1 mRNA was measured at 2 h and Arg1 at 8 h post-LPS stimulation (mean±SD, n=4). […] The experiment was carried out as in (FIG. 10D) except that BMDMs were generated from IL-10+/+ and IL-10−/− mice (mean±SD, n=4).
(§2) mRNA was extracted from cells using the RNeasy Micro Kit following the manufacturers' instructions (Qiagen). cDNA was generated from 1 μg of total RNA using the iScript cDNA synthesis kit and quantified by qPCR using the SsoFast EvaGreen Supermix on a CFX96 real time system (Bio-Rad Laboratories). The relative expression of each gene was calculated from Ct values using the Pfaffl method (5) and was normalized against the mRNA levels of 18S RNA or GAPDH. Results are reported relative to untreated control cells, which was set to 1. The following primers were used: […]
(In qPCR the cycle at which signal appears reflects the starting amount.)

In the next data set the test system is LKB1−/− cells. Description: CREB-dependent gene transcription in IL-1 stimulated LKB1+/+ and LKB1−/− MEFs. It counts as cell-based, mouse.
For the next data set, the system named is AMPK-related kinases. It counts as biochemical. Particulars: members of the AMPK subfamily other than SIKs. As to the method: as §1
The test system of data set [2] is LPS-stimulated macrophages. The data set can be described thus: Cytokine secretion in TLR-stimulated bone-marrow derived macrophages. It counts as cell-based, mouse. As to the method: Bone-marrow derived macrophages were differentiated for 7 days in DMEM supplemented with 5 ng/ml recombinant M-CSF (R&D systems), 2 mM glutamine, 10% foetal calf serum, penicillin and streptomycin.
Following stimulation with ligands, the cell culture medium was removed, clarified by centrifugation for 10 min at 14000×g and the concentration of TNFα, IL-6, IL-10, IL-12p40, and RANTES were measured using the Bio-Plex Pro Assay system from Bio-Rad. IFNβ was measured using an ELISA kit from R&D Systems according to the manufacturers' instructions.
RNA was extracted using the RNeasy Micro Kit (Qiagen). cDNA was generated using the iScript cDNA synthesis kit and quantified by qPCR using the SsoFast EvaGreen Supermix (Bio-Rad Laboratories). […] Fold-induction for each gene was reported relative to untreated control cells, which was set to 1. The concentrations of TNFα, IL-6, IL-10, IL-12p40, and RANTES in culture supernatants were measured using the Bio-Plex Pro Assay system from Bio-Rad. Further details in supplementary information.
Following stimulation with ligands, the cell culture medium was removed, clarified by centrifugation for 10 min at 14000×g and the concentration of TNFα, IL-6, IL-10, IL-12p40 and RANTES were measured using the Bio-Plex Pro Assay system from Bio-Rad. IL-1ra and IFNβ were measured using ELISA kits from R&D Systems.

The test system of data set [3] is TLR-stimulated macrophages. Description: qPCR of CREB-dependent gene mRNA in TLR-stimulated macrophages. In kind it is cell-based, mouse. Particulars: for Nurr77 mRNA: LPS-stimulated macrophages; for IL-10 mRNA: TLR/LPS-stimulated macrophages. As to the method: Bone-marrow derived macrophages were differentiated for 7 days in DMEM supplemented with 5 ng/ml recombinant M-CSF (R&D systems), 2 mM glutamine, 10% foetal calf serum, penicillin and streptomycin. […]
mRNA was extracted from macrophages using the RNeasy Micro Kit following the manufacturers' instructions (Qiagen). cDNA was generated from 1 μg of total RNA using the iScript cDNA synthesis kit and quantified by qPCR using the SsoFast EvaGreen Supermix on a CFX96 real time system (Bio-Rad Laboratories). The relative expression of each gene was calculated from Ct values using the Pfaffl method^30 and was normalized against the mRNA levels of 18S RNA. The following primers were used: IL-10-F, […]; IL-10-R, […]; c-Fos-F, […]; c-Fos-R, […]; nurr1-F, […]; nurr1-R, […]; nurr77-F, […]; nurr77-R, […]; 18S-F, […]; 18S-R, […]; IL-1ra-F, […]; IL-1ra-R, […]; SPHK1-F, […]; SPHK1-R, […]; LIGHT-F, […]; LIGHT-R, […]; ArgI-F, […]; ArgI-R, […]; IFN-F, […]; IFNγ-R, […].
[…]. Biochem J 434:93-104) using the indicated antibodies. RNA was extracted using the RNeasy Micro Kit (Qiagen). cDNA was generated using the iScript cDNA synthesis kit and quantified by qPCR using the SsoFast EvaGreen Supermix (Bio-Rad Laboratories). The relative expression of each gene was calculated from Ct values using the Pfaffl method (Pfaffl M W (2001) A new mathematical model for relative quantification in real-time RT-PCR. Nucleic Acids Res 29:e45) and was normalized against the mRNA levels of 18S or GAPDH RNA. Fold-induction for each gene was reported relative to untreated control cells, which was set to 1. The concentrations of TNFα, IL-6, IL-10, IL-12p40, and RANTES in culture supernatants were measured using the Bio-Plex Pro Assay system from Bio-Rad. Further details in supplementary information.
as §2

Data set [4] can be described thus: Drug metabolism and pharmacokinetic properties. The note with it: compared with MRT67307.
For the next data set, the system named is LPS-injected mice. The data set can be described thus: Cytokine levels in serum of LPS-challenged mice. In kind it is in vivo, mouse. As to the method:
C57BL/6 mice (8-12 week old male mice) were injected with vehicle control or 0-30 mg/kg of MRT68771. After 30 min, LPS was introduced by intraperitoneal injection (3.5 mg/kg). One hour later, the mice were sacrificed and the concentrations of TNFα, IL-10 and IFNβ in the sera were measured as described above.

Another data set relates to CRTC3. Description: CRTC3 nuclear translocation (immunofluorescence, live imaging). It counts as cell-based. Particulars: WT CRTC3. An excerpt:
FIGS. 15A to 15C. SIK inhibitors induce the dephosphorylation of CRTC3 at Ser62, Ser162, Ser329 and Ser370 and its translocation to the nucleus. (FIG. 15A) HEK293 cells were transfected with FLAG-CRTC2, FLAG-CRTC3 or FLG-CRTC3[S162A]. Aliquots of the cell extracts were subjected to SDS-PAGE and immunoblotting using an antibody that recognizes CRTC2 phosphorylated at Ser171. […] (FIG. 15B) HEK293 cells were transfected with FLAG-CRTC3, FLAG-CRTC3[S62A/S162A/S329A/S370A] (termed CRTC3-4A) or with empty vector (FLAG-ev). […]. (FIG. 15C) Inhibition of SIKs promotes the translocation of endogenous CRTC3 to the nucleus. […].
RAW264.7 cells were grown on glass coverslips and treated with inhibitors for 1 h. Cells were then fixed for 10 min in 3.7% paraformaldehyde, permeabilized for 5 min using 0.1% Triton X-100 in PBS and blocked for 45 min using 3% BSA in PBS. Cells were stained with anti-CRTC3 (Abcam 1:200) and anti-α-tubulin (Santa Cruz 1:500) followed by anti-rabbit-alexa488 and anti-mouse-alexa594 (Invitrogen 1:500), respectively. Antibodies were diluted in blocking buffer and incubated with the cells for 45 min. […] Images were recorded every 30 s for 1.5 min prior to the addition of drug after which cells were imaged for a further 60 min.

Entries after “also recorded” stand apart in the source; their conditions may differ.

Regarding `O=C(NCCCNc1nc(Nc2cccc(NC(=O)N3CCCC3)c2)ncc1I)c1cccs1` [BX795], in the data set on NUAK isoforms, the “inhibition of NUAK1” value was “potent inhibitor”. Moreover, the “inhibition of IKK-related kinases” value with IKK-related kinases is reported as “potent inhibitor”. Moreover, the “inhibition of MARKs” value with MARK isoforms is recorded as “potent inhibitor”.

Consider `COc1ccc(N(C(=O)Oc2c(C)cccc2C)c2ccnc(Nc3ccc(N4CCN(C)CC4)cc3)n2)c(OC)c1` [KIN112], for which, in data set [1], the “inhibition of protein kinases with a threonine residue at the gatekeeper site” value is listed as “potent inhibitor; also recorded: inhibited”. For the same molecule, in the data set on SIK isoforms, the “inhibition of SIKs” value is “potent inhibitor; also recorded: potently inhibited; also recorded: possess SIK inhibitory activity”. The “IL-1ra mRNA” value in the data set with LPS-stimulated BMDMs (LPS-stimulated macrophages) is listed as “greatly increased”. Besides, in the data set with LPS-stimulated BMDMs (TLR/LPS-stimulated macrophages), the “mRNAs of regulatory macrophage markers (arginase-1, SPHK1, LIGHT)” value is “stimulating the production”. Further, the “switch of macrophage programme from classically activated towards regulatory phenotype” value in the data set on LPS-stimulated BMDMs (quiescent macrophages) is recorded as “switched their maturation programme from the classically activated route towards the regulatory phenotype”. In the data set on LKB1−/− cells (LKB1+/+ cells), the CREB-dependent gene transcription entry is listed as “enhanced”. Moreover, the “transcription of Nurr1 and Nurr77” value in the data set on LKB1−/− cells (LKB1−/− cells) is on record as “only be increased to a small extent”. In addition, in the data set on AMPK-related kinases, the “inhibition of AMPK-related kinases” value is “did not inhibit any other member”. In addition, in [2] (LPS-stimulated macrophages), the IL-10 secretion result was “stimulate IL-10 secretion in a dose dependent manner; also recorded: increased” and the pro-inflammatory cytokine secretion result is given as “greatly suppressed”. In addition, in [2] (in response to TLR ligands), the IL-10 secretion result is given as “high levels of IL-10” and the IL-12p40 secretion entry is recorded as “low levels of IL-12p40”. Moreover, in data set [3], the “Nurr77 mRNA” value is listed as “increased” and the “IL-10 mRNA” value was “increased”.

With `Cn1cc(-c2ccc(Nc3ncc(C4CC4)c(NCCCNC(=O)C4CCC4)n3)cc2)cn1` [MRT68771], the “inhibition of SIKs” value in the data set with SIK isoforms is on record as “possess SIK inhibitory activity”. Moreover, the “drug metabolism and pharmacokinetic properties” value in data set [4] was “improved drug metabolism and pharmacokinetic properties”. In [2] (LPS-stimulated macrophages), the IL-10 secretion result is reported as “elevated levels of IL-10” and the pro-inflammatory cytokine secretion result is given as “reduced levels of pro-inflammatory cytokines”. Further, in the data set with LPS-injected mice, the IL-10 in serum entry is recorded as “elevated levels of IL-10” and the “pro-inflammatory cytokines in serum” value is given as “reduced levels of pro-inflammatory cytokines”.

With `CC1(C)C(=O)N([C@H]2CCc3c(O)cccc32)c2nc(Nc3cccc(CN4CCCC4)c3)ncc21` [MRT199665, 7-[(1S)-4-hydroxy-2,3-dihydro-1H-inden-1-yl]-5,5-dimethyl-2-{[3-(pyrrolidin-1-ylmethyl)phenyl]amino}-5,7-dihydro-6H-pyrrolo[2,3-d]pyrimidin-6-one], in the data set on CRTC3, the CRTC3 nuclear translocation result is reported as “translocates to the nucleus”. For the same molecule, the IL-10 secretion entry in data set [2] (LPS-stimulated macrophages) is on record as “stimulate IL-10 secretion in a dose dependent manner; also recorded: increased”. For the same molecule, in data set [3], the “Nurr77 mRNA” value is reported as “increased” and the “IL-10 mRNA” value was “increased”.

B1: IL-4: Murine IL-4 from Peprotech, control in macrophage marker experiments (protein, UniProt P07750 21-140, looked up)
Interleukin-4: HIHGCDKNHLREIIGILNEVTGEGTPCTEMDVPNVLTATKNTTESELVCRASKVLRIFYLKHGKTPCLKKNSSVLMELQRLFRAFRCLDSSISCTMNESKSTSLKDFLESLKSIMQMDYS
Take B1: in the data set with LPS-stimulated BMDMs, the “expression of FIZZ, Ym1 or Mgl2 (wound-healing M2a markers)” value is “induced the expression”. For the same molecule, in the data set on LPS-stimulated BMDMs (control experiments), the “expression of LIGHT or SPHK1” value is “not LIGHT or SPHK1”.
